Measurements as given in patent US20190284293A1, “COMBINATION THERAPY WITH ANTI-CD73 ANTIBODIES” (BRISTOL-MYERS SQUIBB COMPANY, priority 2016, published 2019).
pIC50, pKd: −log10 of the molar value.

Experiments:
[1] = target: T1, endogenous CD73 activity in Calu-6 cells (Homo sapiens, UniProt P21589); test: Dual cell line HTRF cAMP assay (Calu-6 and HEK293/A2AR cells); format: cell-based
T1 construct: Calu6 (CD73 endogenous expressors; human pulmonary adenocarcinoma cell line); endogenous in cells; host or cells: Calu6 (Calu-6) human pulmonary adenocarcinoma cells
T1 sequence (P21589 27-549): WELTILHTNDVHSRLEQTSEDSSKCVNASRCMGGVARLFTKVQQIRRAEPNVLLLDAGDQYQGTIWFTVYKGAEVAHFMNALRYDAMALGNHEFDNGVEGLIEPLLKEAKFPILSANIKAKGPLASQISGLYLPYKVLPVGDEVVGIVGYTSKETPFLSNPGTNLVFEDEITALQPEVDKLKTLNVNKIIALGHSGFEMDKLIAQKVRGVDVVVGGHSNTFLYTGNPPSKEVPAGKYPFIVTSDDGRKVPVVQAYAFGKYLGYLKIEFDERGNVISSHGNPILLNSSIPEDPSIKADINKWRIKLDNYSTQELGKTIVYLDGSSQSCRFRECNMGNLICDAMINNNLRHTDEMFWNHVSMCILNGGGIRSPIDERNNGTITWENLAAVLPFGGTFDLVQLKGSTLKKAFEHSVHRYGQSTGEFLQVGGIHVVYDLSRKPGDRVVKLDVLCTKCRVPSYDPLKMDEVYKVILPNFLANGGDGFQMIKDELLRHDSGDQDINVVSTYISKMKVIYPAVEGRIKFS
Method: CD73 antibodies were serial diluted with PBS buffer containing 0.2% BSA, and plated 5 μl/well in 384 well white bottom proxiplate (PerkinElmer, Waltham, Mass.). Calu-6 cells were harvested and resuspend in PBS containing 0.2% BSA, then 5 μl of cells (300 cells/well) were added to the plate. The cells were incubated with antibodies for 10 minutes at 37° C. […] The cells were further incubated with AMP for 30 minutes at 37° C. During this time, HEK293/A2AR cells were harvested and diluted to 0.4 million/ml in PBS containing 0.2% BSA. They were added into the assay plate at 5 μl/well and continued to incubate at 37° C. for 1 hr. HRTF assays were performed using the homogenous time-resolved fluorescence (HTRE) HiRange cAMP detection kit (Cisbio, Bedford, Mass.) by adding 10 cAMP-conjugated d2 and 10 europium conjugated anti-cAMP antibody in lysis buffer according to the manufacturer's instructions. Plates were incubated at room temperature for 60 minutes and Fluorescence Resonance Energy Transfer (FRET) signals (665 and 615 nM) were read using an EnVision plate reader (PerkinElmer, Waltham, Mass.). The FRET signal was calculated as the ratio of signal from the 665 nm (acceptor) and 615 nm (donor) channels and multiplied by 10,000. IC50 and Ymax were measured. […] All calculations were determined as a percentage of inhibition compared to this control, which was set to 100%.

all other FcγRs = test: SPR binding of constructs to human FcγRs; details: read-out: binding affinity to all other FcγRs
Method: Binding of the constructs to human FcγRs was measured via SPR. hCD64 and hCD32a-H131 binding data for IgG1.1 and IgG2 molecules were consistent with expected values for the different Fcs. IgG1.1f is the most inert Fc.

cyno FcγRs = test: SPR binding of constructs to cyno FcγRs; details: read-out: binding affinity to cyno FcγRs
human FcRn = human FcRn (Homo sapiens, UniProt P55899); test: SPR binding to human FcRn; details: strong at pH6, weak binding with fast dissociation at pH 7.4

pKd (all other FcγRs)	pKd (cyno FcγRs)	binding to human FcRn (human FcRn)	Molecule	pIC50 ([1]; cAMP assay)	Ymax ([1]; percentage of inhibition compared to 100 nM 11F11 set to 100%)
			Nc1ncnc2c1ncn2[C@@H]1O[C@H](COP(=O)(O)CP(=O)(O)O)[C@@H](O)[C@H]1O [APCP]	8.89	97
> 5.30	< 5.30	pH-dependent binding	IgG2-C219S-G1.1f: effectorless IgG1/IgG2 hybrid constant region: CH1 and hinge from IgG2 (C219S), CH2 and CH3 of IgG1 (A330S/P331S); SEQ ID NO:169		
